Experimental data from US9789110B2, “Diacylglycerol acyltransferase 2 inhibitors” (PFIZER INC., priority 2014, dated 2017).
Read-outs that look alike come from different tables or passages of the source.

Biological target: hDGAT2 (Homo sapiens (Human), UniProt Q96PD7)
Experiment: In vitro DGAT2 assay, hDGAT2 membrane fraction, [14C]decanoyl-CoA scintillation readout
Format: biochemical
Settings: read-out: IC50 for inhibition of DGAT2
Procedure: Recombinant baculovirus for the FLAG-tagged hDGAT2 was generated in SF9 insect cells using Bac-to-Bac baculovirus expression system (Invitrogen) according to the manufacturer's protocol. For the expression of hDGAT2, SF9 cells (20 L) grown in Sf90011 media were infected with hDGAT2 baculovirus at a multiplicity of infection of 1 in a Wave Bioreactor System 20/50P wave bag (GE Healthcare). After 40 hours of infection, the cells were then harvested by centrifugation at 5,000×g. The cell pellets were washed by resuspending in phosphate buffered saline (PBS) and collected by centrifugation at 5,000×g. The cell paste was flash frozen in liquid N2 and stored at −80° C. until needed. All operations below were at 4° C. unless otherwise noted. The cells were resuspended in lysis buffer (50 mM Tris-HCl, pH 8.0, 250 mM sucrose) including 1 mM ethylenediaminetetraacetic acid (EDTA) and the complete protease inhibitor cocktail (Roche Diagnostics) at a ratio of 3 ml buffer per 1 g cell paste. The cells were lysed by dounce homogenizer. The cell debris was removed by centrifugation at 1,000×g for 20 min, and the supernatant was centrifuged at 100,000×g for 1 hour. The resulting pellet was rinsed three times by filling ultracentrifuge tubes to the top with ice cold PBS before decanting. The washed pellet was resuspended with gentle stirring for 1 hour in lysis buffer containing 8 mM 3-[(3-cholamidopropyl)dimethylammonio]-1-propanesulfonate (CHAPS) at a ratio of 1 mL buffer per 1 g of original cell paste and centrifuged again at 100,000×g for 1 hour. The resulting supernatant was aliquotted, flash frozen in liquid N2, and stored at −80° C. until use.
For determination of IC50 values, the reactions were carried out in 384-well white Polyplates (Perkin Elmer) in a total volume of 20 μL. To […] compounds dissolved in 100% DMSO and spotted at the bottom of each well, 5 μL of 0.04% bovine serum albumin (BSA) (fatty acid free, Sigma Aldrich) was added and the mixture was incubated at room temperature for 20 minutes. To this mixture, 10 μL of hDGAT2 membrane fraction (0.01 mg/mL) diluted in 100 mM Hepes-NaOH, pH 7.4, 20 mM MgCl2 containing 200 nM methyl arachidonyl fluorophosphonate (Cayman Chemical; dried from ethyl acetate stock solution under argon gas and dissolved in DMSO as 5 mM stock) was added. After this mixture was preincubated at room temperature for 2 hours, DGAT2 reactions were initiated by the addition of 4 μL of substrates containing 30 μM [1-^14C]decanoyl-CoA (custom-synthesized by Perkin Elmer, 50 mCi/mmol) and 125 μM 1,2-didecanoyl-sn-glycerol (Avanti Polar Lipids) dissolved in 12.5% acetone. The reaction mixtures were incubated at room temperature for 40 min and the reactions were stopped by addition of 5 μL of 1% H3PO4. After the addition of 45 μL MicroScint-E (Perkin-Elmer), plates were sealed with Top Seal-A covers (Perkin-Elmer) and phase partitioning of substrates and products was achieved using a HT-91100 microplate orbital shaker (Big Bear Automation, Santa Clara, Calif.). Plates were centrifuged at 2,000×g for 1 min in an Allegra 6R Centrifuge (Beckman Coulter) and then were sealed again with fresh covers before reading in a 1450 Microbeta Wallac Trilux Scintillation Counter (Perkin Elmer). DGAT2 activity was measured by quantifying the generated product [^14C]tridecanoylglycerol in the upper organic phase.
Inhibitors were tested at eleven different concentrations to generate IC50 values for each compound.

[1] = geometric mean, FLAG-hDGAT2 membrane fraction, 2 h preincubation

hDGAT2, sequence (Q96PD7 whole entry): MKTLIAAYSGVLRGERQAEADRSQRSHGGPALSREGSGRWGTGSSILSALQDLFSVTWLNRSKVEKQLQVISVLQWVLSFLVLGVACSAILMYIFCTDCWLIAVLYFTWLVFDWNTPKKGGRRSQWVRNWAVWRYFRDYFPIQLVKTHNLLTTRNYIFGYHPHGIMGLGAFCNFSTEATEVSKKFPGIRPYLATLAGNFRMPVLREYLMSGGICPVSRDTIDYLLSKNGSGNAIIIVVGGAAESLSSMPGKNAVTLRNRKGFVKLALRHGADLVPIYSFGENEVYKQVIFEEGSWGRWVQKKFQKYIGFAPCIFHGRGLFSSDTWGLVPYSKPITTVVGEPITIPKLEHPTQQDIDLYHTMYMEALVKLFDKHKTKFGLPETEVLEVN

CCOc1ccccc1O[C@@H]1CCCN(c2ncc(C(=O)N3C[C@H]4C[C@@H]3CO4)cn2)C1 [Example 19.14, ((1R,4R)-2-oxa-5-azabicyclo[2.2.1]heptan-5-yl)(2-((R)-3-(2-ethoxyphenoxy)piperidin-1-yl)pyrimidin-5-yl)methanone]
IC50 [1]: 21.5 nM

CCOc1ccccc1O[C@@H]1CCCN(c2ncc(C(=O)N[C@@H]3CNC(=O)C3)cn2)C1 [Example 19.16, 2-((R)-3-(2-ethoxyphenoxy)piperidin-1-yl)-N-((S)-5-oxopyrrolidin-3-yl)pyrimidine-5-carboxamide]
IC50 [1]: 122 nM

CCOc1ccccc1O[C@@H]1CCCN(c2ncc(C(=O)NCc3ccccc3)cn2)C1 [Example 19.7, (R)-N-benzyl-2-(3-(2-ethoxyphenoxy)piperidin-1-yl)pyrimidine-5-carboxamide]
IC50 [1]: 4.3 nM

CCOc1ccccc1O[C@@H]1CCCN(c2ncc(C(=O)NCC3CC3)cn2)C1 [Example 19.4, (R)-N-(cyclopropylmethyl)-2-(3-(2-ethoxyphenoxy)piperidin-1-yl)pyrimidine-5-carboxamide]
IC50 [1]: 18.6 nM

CCOc1ccccc1O[C@@H]1CCCN(c2ncc(C(=O)N3CCCC3)cn2)C1 [Example 20.9, (R)-(2-(3-(2-ethoxyphenoxy)piperidin-1-yl)pyrimidin-5-yl)(pyrrolidin-1-yl)methanone]
IC50 [1]: 24.5 nM

CCOc1ccccc1O[C@@H]1CCCN(c2ncc(C(=O)NCc3cocn3)cn2)C1 [Example 19.15, (R)-2-(3-(2-ethoxyphenoxy)piperidin-1-yl)-N-(oxazol-4-ylmethyl)pyrimidine-5-carboxamide]
IC50 [1]: 11.2 nM

CCOc1ccccc1O[C@@H]1CCCN(c2ncc(C(=O)N[C@H]3CNC(=O)C3)cn2)C1 [Example 19.13, 2-((R)-3-(2-ethoxyphenoxy)piperidin-1-yl)-N-((R)-5-oxopyrrolidin-3-yl)pyrimidine-5-carboxamide]
IC50 [1]: 46.7 nM

CCOc1ccccc1O[C@@H]1CCCN(c2ncc(C(=O)N3Cc4cnn(C)c4C3)cn2)C1 [Example 19.6, (R)-(2-(3-(2-ethoxyphenoxy)piperidin-1-yl)pyrimidin-5-yl)(1-methyl-4,6-dihydropyrrolo[3,4-c]pyrazol-5(1H)-yl)methanone]
IC50 [1]: 34.9 nM

CCOc1ccccc1O[C@@H]1CCCN(c2ncc(C(=O)NCc3cnccn3)cn2)C1 [Example 19.18, (R)-2-(3-(2-ethoxyphenoxy)piperidin-1-yl)-N-(pyrazin-2-ylmethyl)pyrimidine-5-carboxamide]
IC50 [1]: 22.5 nM

CCOc1ccccc1O[C@@H]1CCCN(c2ncc(C(=O)Nc3ccon3)cn2)C1 [Example 19.19, (R)-2-(3-(2-ethoxyphenoxy)piperidin-1-yl)-N-(isoxazol-3-yl)pyrimidine-5-carboxamide]
IC50 [1]: 11.1 nM

CCOc1ccccc1O[C@@H]1CCCN(c2ncc(C(=O)N3CCC3)cn2)C1 [Example 19.11, (R)-azetidin-1-yl(2-(3-(2-ethoxyphenoxy)piperidin-1-yl)pyrimidin-5-yl)methanone]
IC50 [1]: 26.7 nM

CCOc1ccccc1O[C@@H]1CCCN(c2ncc(C(=O)NCc3cccc(C(=O)O)c3OC)cn2)C1 [Example 14, (R)-3-((2-(3-(2-ethoxyphenoxy)piperidin-1-yl)pyrimidine-5-carboxamido)methyl)-2-methoxybenzoic acid]
IC50 [1]: 76.6 nM

CCOc1ccccc1O[C@@H]1CCCN(c2ncc(C(=O)Nc3cncnc3)cn2)C1 [Example 19.20, (R)-2-(3-(2-ethoxyphenoxy)piperidin-1-yl)-N-(pyrimidin-5-yl)pyrimidine-5-carboxamide]
IC50 [1]: 33.3 nM

CCOc1ccccc1O[C@@H]1CCCN(c2ncc(C(=O)N3CC(Oc4ccccc4)C3)cn2)C1 [Example 21.2, (R)-(2-(3-(2-ethoxyphenoxy)piperidin-1-yl)pyrimidin-5-yl)(3-phenoxyazetidin-1-yl)methanone]
IC50 [1]: 0.6 nM

CCOc1ccccc1O[C@@H]1CCCN(c2ncc(C(=O)N3CCOCC3)cn2)C1 [Example 19.1, (R)-(2-(3-(2-ethoxyphenoxy)piperidin-1-yl)pyrimidin-5-yl)(morpholino)methanone]
IC50 [1]: 22.6 nM

CCOc1ccccc1O[C@@H]1CCCN(c2ncc(C(=O)N[C@H]3CCc4ccccc43)cn2)C1 [Example 21.1, N-((S)-2,3-dihydro-1H-inden-1-yl)-2-((R)-3-(2-ethoxyphenoxy)piperidin-1-yl)pyrimidine-5-carboxamide]
IC50 [1]: 1.5 nM

CCOc1ccccc1O[C@@H]1CCCN(c2ncc(C(=O)NCCC(N)=O)cn2)C1 [Example 20.1, (R)-N-(3-amino-3-oxopropyl)-2-(3-(2-ethoxyphenoxy)piperidin-1-yl)pyrimidine-5-carboxamide]
IC50 [1]: 149 nM

CCOc1ccccc1O[C@@H]1CCCN(c2ncc(C(=O)NCCC(=O)NC)cn2)C1 [Example 20.4, (R)-2-(3-(2-ethoxyphenoxy)piperidin-1-yl)-N-(3-(methylamino)-3-oxopropyl)pyrimidine-5-carboxamide]
IC50 [1]: 53.3 nM

CCOc1ccccc1O[C@@H]1CCCN(c2ncc(C(=O)N3Cc4ccccc4C3)cn2)C1 [Example 19.12, (R)-(2-(3-(2-ethoxyphenoxy)piperidin-1-yl)pyrimidin-5-yl)(isoindolin-2-yl)methanone]
IC50 [1]: 1.4 nM

CCOc1ccccc1O[C@@H]1CCCN(c2ncc(C(=O)NC(C)(C)CC(N)=O)cn2)C1 [Example 19.17, (R)-N-(4-amino-2-methyl-4-oxobutan-2-yl)-2-(3-(2-ethoxyphenoxy)piperidin-1-yl)pyrimidine-5-carboxamide]
IC50 [1]: 12.2 nM

CCOc1ccccc1O[C@@H]1CCCN(c2ncc(C(=O)N3CC(F)(F)C3)cn2)C1 [Example 20.7, (R)-(3,3-difluoroazetidin-1-yl)(2-(3-(2-ethoxyphenoxy)piperidin-1-yl)pyrimidin-5-yl)methanone]
IC50 [1]: 7.9 nM

CCOc1ccccc1O[C@@H]1CCCN(c2ncc(C(=O)N3CC(OC)C3)cn2)C1 [Example 19.9, (R)-(2-(3-(2-ethoxyphenoxy)piperidin-1-yl)pyrimidin-5-yl)(3-methoxyazetidin-1-yl)methanone]
IC50 [1]: 14.3 nM

CCOc1ccccc1O[C@@H]1CCCN(c2ncc(C(=O)NCc3ccon3)cn2)C1 [Example 19.3, (R)-2-(3-(2-ethoxyphenoxy)piperidin-1-yl)-N-(isoxazol-3-ylmethyl)pyrimidine-5-carboxamide]
IC50 [1]: 10.8 nM

CCOc1ccccc1O[C@@H]1CCCN(c2ncc(C(=O)NCCS(C)(=O)=O)cn2)C1 [Example 19.8, (R)-2-(3-(2-ethoxyphenoxy)piperidin-1-yl)-N-(2-(methylsulfonyl)ethyl) pyrimidine-5-carboxamide]
IC50 [1]: 102 nM

CCOc1ccccc1O[C@@H]1CCCN(c2ncc(C(=O)NC3CCC3)cn2)C1 [Example 19.22, (R)-N-cyclobutyl-2-(3-(2-ethoxyphenoxy)piperidin-1-yl)pyrimidine-5-carboxamide]
IC50 [1]: 10.7 nM

CCOc1ccccc1O[C@@H]1CCCN(c2ncc(C(=O)NCCCc3nn[nH]n3)cn2)C1 [Example 20.2, (R)-N-(3-(2H-tetrazol-5-yl)propyl)-2-(3-(2-ethoxyphenoxy)piperidin-1-yl)pyrimidine-5-carboxamide]
IC50 [1]: 431 nM

CCOc1ccccc1O[C@@H]1CCCN(c2ncc(C(=O)N(C)C)cn2)C1 [Example 20.3, (R)-2-(3-(2-ethoxyphenoxy)piperidin-1-yl)-N,N-dimethylpyrimidine-5-carboxamide]
IC50 [1]: 104 nM

CCOc1ccccc1O[C@@H]1CCCN(c2ncc(C(=O)NCC(=O)NC)cn2)C1 [Example 20.6, (R)-2-(3-(2-ethoxyphenoxy)piperidin-1-yl)-N-(2-(methylamino)-2-oxoethyl)pyrimidine-5-carboxamide]
IC50 [1]: 144 nM

CCOc1ccccc1O[C@@H]1CCCN(c2ncc(C(=O)N3CCCCC3)cn2)C1 [Example 20.11, (R)-(2-(3-(2-ethoxyphenoxy)piperidin-1-yl)pyrimidin-5-yl)(piperidin-1-yl)methanone]
IC50: 15.7 nM
